Data: patent publication US9452986B2, “6-heteroaryloxy- or 6-aryloxy-quinoline-2-carboxamides and method of use” (AbbVie Inc., priority 2014, dated 2016)
Where two headings read alike, the source gives them in different places.

Biological target: recombinant human Nav1.7 (Homo sapiens (Human), UniProt Q15858)
Assay: FRET-based membrane potential assay, recombinant human sodium channel Nav1.7
Type: cell-based
Details: read-out: FRET-Membrane Potential Nav1.7 IC50
Outline: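 Channel activation used veratridine at its EC80, set by a dilution curve each experiment, together with Leiurus scorpion venom, added 3 min after compound. Membrane-potential ratio signals from FLIPR Tetra in HEPES-buffered HBSS were fitted to a four-parameter Hill equation for percent inhibition and IC50.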

[1] = HEK293 cells stably expressing recombinant human Nav1.7, veratridine + scorpion venom depolarization

Chain of recombinant human Nav1.7 (Q15858 whole entry): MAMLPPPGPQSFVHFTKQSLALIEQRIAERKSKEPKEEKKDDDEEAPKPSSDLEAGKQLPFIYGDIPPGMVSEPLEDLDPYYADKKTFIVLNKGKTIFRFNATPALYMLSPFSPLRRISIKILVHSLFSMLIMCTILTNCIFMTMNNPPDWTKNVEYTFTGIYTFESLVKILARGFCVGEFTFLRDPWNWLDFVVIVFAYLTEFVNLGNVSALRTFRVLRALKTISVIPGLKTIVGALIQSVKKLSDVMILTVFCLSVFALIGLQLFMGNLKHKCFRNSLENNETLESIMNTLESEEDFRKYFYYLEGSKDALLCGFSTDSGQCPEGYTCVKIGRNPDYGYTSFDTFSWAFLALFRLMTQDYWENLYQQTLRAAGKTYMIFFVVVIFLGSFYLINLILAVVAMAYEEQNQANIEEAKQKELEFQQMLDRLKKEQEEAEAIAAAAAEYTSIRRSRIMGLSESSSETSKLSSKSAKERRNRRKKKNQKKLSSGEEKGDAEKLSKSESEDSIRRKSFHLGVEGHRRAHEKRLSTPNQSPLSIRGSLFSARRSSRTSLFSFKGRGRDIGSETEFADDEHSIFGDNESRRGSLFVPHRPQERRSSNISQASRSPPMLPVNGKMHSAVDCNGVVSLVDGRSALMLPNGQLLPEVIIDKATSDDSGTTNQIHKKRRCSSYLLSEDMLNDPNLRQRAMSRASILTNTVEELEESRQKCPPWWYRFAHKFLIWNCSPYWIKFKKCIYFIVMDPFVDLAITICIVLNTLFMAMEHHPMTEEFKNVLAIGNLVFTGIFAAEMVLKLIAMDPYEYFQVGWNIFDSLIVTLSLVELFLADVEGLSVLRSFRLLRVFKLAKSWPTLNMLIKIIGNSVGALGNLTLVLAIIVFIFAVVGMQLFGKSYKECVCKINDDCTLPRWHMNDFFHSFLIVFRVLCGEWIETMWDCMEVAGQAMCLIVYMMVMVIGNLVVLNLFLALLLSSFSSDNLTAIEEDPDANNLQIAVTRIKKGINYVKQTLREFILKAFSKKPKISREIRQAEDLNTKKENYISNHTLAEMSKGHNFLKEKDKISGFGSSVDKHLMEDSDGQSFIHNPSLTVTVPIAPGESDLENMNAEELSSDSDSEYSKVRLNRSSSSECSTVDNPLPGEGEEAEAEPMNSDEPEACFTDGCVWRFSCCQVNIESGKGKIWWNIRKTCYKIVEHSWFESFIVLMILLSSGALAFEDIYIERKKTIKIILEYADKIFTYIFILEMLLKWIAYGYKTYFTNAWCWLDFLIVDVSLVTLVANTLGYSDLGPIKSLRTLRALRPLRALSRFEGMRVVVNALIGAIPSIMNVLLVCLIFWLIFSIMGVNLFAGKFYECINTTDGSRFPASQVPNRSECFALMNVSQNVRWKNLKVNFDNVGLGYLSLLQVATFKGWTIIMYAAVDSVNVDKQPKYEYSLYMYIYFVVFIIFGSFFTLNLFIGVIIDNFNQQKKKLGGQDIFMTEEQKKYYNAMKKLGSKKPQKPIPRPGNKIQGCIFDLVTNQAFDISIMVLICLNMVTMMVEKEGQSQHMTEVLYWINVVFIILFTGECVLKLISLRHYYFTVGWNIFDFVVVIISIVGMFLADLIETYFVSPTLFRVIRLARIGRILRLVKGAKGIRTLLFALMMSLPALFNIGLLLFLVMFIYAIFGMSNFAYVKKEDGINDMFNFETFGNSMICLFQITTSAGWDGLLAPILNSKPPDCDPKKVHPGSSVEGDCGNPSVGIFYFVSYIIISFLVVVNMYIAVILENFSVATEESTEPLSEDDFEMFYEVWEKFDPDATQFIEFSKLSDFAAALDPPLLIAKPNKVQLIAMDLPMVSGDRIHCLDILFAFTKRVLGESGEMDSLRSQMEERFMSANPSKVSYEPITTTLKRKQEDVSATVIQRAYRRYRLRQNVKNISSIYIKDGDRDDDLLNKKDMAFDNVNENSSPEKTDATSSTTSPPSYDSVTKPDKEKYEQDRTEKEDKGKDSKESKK

Compound	IC50	IC50 [1]
CO[C@H]1CCN(C(=O)c2ccc3cc(Oc4ccc(C(F)(F)F)cn4)ccc3n2)C1 [Example 589, [(3S)-3-methoxypyrrolidin-1-yl](6-{[5-(trifluoromethyl)pyridin-2-yl]oxy}quinolin-2-yl)methanone]	4070 nM	–
O=C(NCCOC(F)(F)F)c1ccc2cc(Oc3ccc(C(F)(F)F)cn3)ccc2n1 [Example 547, N-[2-(trifluoromethoxy)ethyl]-6-{[5-(trifluoromethyl)pyridin-2-yl]oxy}quinoline-2-carboxamide]	3290 nM	–
O=C(c1ccc2cc(Oc3ccc(C(F)(F)F)cn3)ccc2n1)N1CC[C@H](F)[C@H](O)C1 (relative stereo) [Example 192, [cis-4-fluoro-3-hydroxypiperidin-1-yl](6-{[5-(trifluoromethyl)pyridin-2-yl]oxy}quinolin-2-yl)methanone]	–	17700 nM
CC1(O)CN(C(=O)c2ccc3cc(Oc4ccc(C(F)(F)F)cn4)ccc3n2)C1 [Example 198, (3-hydroxy-3-methylazetidin-1-yl)(6-{[5-(trifluoromethyl)pyridin-2-yl]oxy}quinolin-2-yl)methanone]	–	2210 nM
O=C(c1ccc2cc(Oc3cccc(C(F)(F)F)n3)ccc2n1)N1CCNCC1 [Example 153, piperazin-1-yl(6-{[6-(trifluoromethyl)pyridin-2-yl]oxy}quinolin-2-yl)methanone]	3300 nM	–
O=C(c1ccc2cc(Oc3nnc(C(F)(F)F)s3)ccc2n1)N1CCNCC1 [Example 320, piperazin-1-yl(6-{[5-(trifluoromethyl)-1,3,4-thiadiazol-2-yl]oxy}quinolin-2-yl)methanone]	–	17100 nM
CC(=O)C1CN(C(=O)c2ccc3cc(Oc4ccc(C(F)(F)F)cn4)ccc3n2)C1 [Example 506, 1-{1-[(6-{[5-(trifluoromethyl)pyridin-2-yl]oxy}quinolin-2-yl)carbonyl]azetidin-3-yl}ethanone]	–	781 nM
N#Cc1ccc(Oc2ccc3nc(C(=O)N[C@H]4CC[C@@H](O)CC4)ccc3c2)cc1 [Example 133, 6-(4-cyanophenoxy)-N-(cis-4-hydroxycyclohexyl)quinoline-2-carboxamide]	–	1170 nM
O=C(c1ccc2cc(Oc3ccc(C(F)(F)F)cn3)ccc2n1)N1CCNC2(CCC2)C1 [Example 418, 5,8-diazaspiro[3.5]non-8-yl(6-{[5-(trifluoromethyl)pyridin-2-yl]oxy}quinolin-2-yl)methanone]	–	539 nM
COCC1(C)CN(C(=O)c2ccc3cc(Oc4ccc(C(F)(F)F)cn4)ccc3n2)C1 [Example 199, [3-(methoxymethyl)-3-methylazetidin-1-yl](6-{[5-(trifluoromethyl)pyridin-2-yl]oxy}quinolin-2-yl)methanone]	2550 nM	–
O=C(c1ccc2cc(Oc3ccc(C(F)(F)F)cn3)ccc2n1)N1CC(F)C1 [Example 507, (3-fluoroazetidin-1-yl)(6-{[5-(trifluoromethyl)pyridin-2-yl]oxy}quinolin-2-yl)methanone]	–	2180 nM
NS(=O)(=O)CCNC(=O)c1ccc2cc(Oc3ccc(C(F)(F)F)cn3)ccc2n1 [Example 317, N-(2-sulfamoylethyl)-6-{[5-(trifluoromethyl)pyridin-2-yl]oxy}quinoline-2-carboxamide]	–	3010 nM
N#Cc1ccc(Oc2ccc3nc(C(=O)NCc4ncco4)ccc3c2)cc1 [Example 144, 6-(4-cyanophenoxy)-N-(1,3-oxazol-2-ylmethyl)quinoline-2-carboxamide]	–	832 nM
CC1(O)CN(C(=O)CNC(=O)c2ccc3cc(Oc4ccc(C(F)(F)F)cn4)ccc3n2)C1 [Example 567, N-[2-(3-hydroxy-3-methylazetidin-1-yl)-2-oxoethyl]-6-{[5-(trifluoromethyl)pyridin-2-yl]oxy}quinoline-2-carboxamide]	3280 nM	–
CCN(CC)C(=O)CCNC(=O)c1ccc2cc(Oc3ccc(C(F)(F)F)nc3)ccc2n1 [Example 524, N-[3-(diethylamino)-3-oxopropyl]-6-{[6-(trifluoromethyl)pyridin-3-yl]oxy}quinoline-2-carboxamide]	–	1080 nM
N#Cc1ccc(Oc2ccc3nc(C(=O)NC4CCN(Cc5ccccc5)C4)ccc3c2)cc1 (stereo not shown) [Example 109, N-(1-benzylpyrrolidin-3-yl)-6-(4-cyanophenoxy)quinoline-2-carboxamide]	–	660 nM
O=C(NCCC(=O)N1CCCCC1)c1ccc2cc(Oc3ccc(C(F)(F)F)cn3)ccc2n1 [Example 449, N-[3-oxo-3-(piperidin-1-yl)propyl]-6-{[5-(trifluoromethyl)pyridin-2-yl]oxy}quinoline-2-carboxamide]	789 nM	–
C=CCN(C)C(=O)c1ccc2cc(Oc3ccc(C(F)(F)F)cn3)ccc2n1 [Example 366, N-allyl-N-methyl-6-{[5-(trifluoromethyl)pyridin-2-yl]oxy}quinoline-2-carboxamide]	–	3180 nM
CN1CCN(C(=O)c2ccc3cc(Oc4ccc(C#N)cc4)ccc3n2)CC1 [Example 81, 4-({2[(4-methylpiperazin-1-yl)carbonyl]quinolin-6-yl}oxy)benzonitrile]	–	1870 nM
O=C(NC1CCC(F)(F)CC1)c1ccc2cc(Oc3ccc(C(F)(F)F)nc3)ccc2n1 [Example 511, N-(4,4-difluorocyclohexyl)-6-{[6-(trifluoromethyl)pyridin-3-yl]oxy}quinoline-2-carboxamide]	–	1980 nM
O=C(c1ccc2cc(Oc3ccc(C(F)(F)F)cn3)ccc2n1)N1CC(Oc2ccccc2)C1 [Example 201, (3-phenoxyazetidin-1-yl)(6-{[5-(trifluoromethyl)pyridin-2-yl]oxy}quinolin-2-yl)methanone]	> 20000 nM	–
O=C(NC1CCS(=O)(=O)C1)c1ccc2cc(Oc3ccc(C(F)(F)F)nn3)ccc2n1 (stereo not shown) [Example 168, N-(1,1-dioxidotetrahydrothiophen-3-yl)-6-{[6-(trifluoromethyl)pyridazin-3-yl]oxy}quinoline-2-carboxamide]	–	> 20000 nM
N#Cc1ccc(Oc2ccc3nc(C(=O)Nc4ccc5cn[nH]c5c4)ccc3c2)cc1 [Example 84, 6-(4-cyanophenoxy)-N-(1H-indazol-6-yl)quinoline-2-carboxamide]	> 20000 nM	–
O=C(c1ccc2cc(Oc3ccc(C(F)(F)F)cn3)ccc2n1)N1CCN(CC(F)F)CC1 [Example 298, [4-(2,2-difluoroethyl)piperazin-1-yl](6-{[5-(trifluoromethyl)pyridin-2-yl]oxy}quinolin-2-yl)methanone]	–	12300 nM
O=C(c1ccc2cc(Oc3ccc(C(F)(F)F)cn3)ccc2n1)N1CCN(S(=O)(=O)CCC(F)(F)F)CC1 [Example 332, (6-{[5-(trifluoromethyl)pyridin-2-yl]oxy}quinolin-2-yl) {4-[(3,3,3-trifluoropropyl)sulfonyl]piperazin-1-yl}methanone]	–	10100 nM
O=C(NC1CCS(=O)(=O)C1)c1ccc2cc(Oc3ccc(Cl)nn3)ccc2n1 (stereo not shown) [Example 165, 6-[(6-chloropyridazin-3-yl)oxy]-N-(1,1-dioxidotetrahydrothiophen-3-yl)quinoline-2-carboxamide]	–	> 20000 nM
N#Cc1ccc(Oc2ccc3nc(C(=O)N4CCc5ccccc54)ccc3c2)cc1 [Example 111, 4-{[2-(2,3-dihydro-1H-indol-1-ylcarbonyl)quinolin-6-yl]oxy}benzonitrile]	> 20000 nM	–
N#Cc1ccc(Oc2ccc3nc(C(=O)N[C@H]4CCC[C@H](O)C4)ccc3c2)cc1 [Example 132, 6-(4-cyanophenoxy)-N-[(1S,3S)-3-hydroxycyclohexyl]quinoline-2-carboxamide]	–	2700 nM
